# Data reported in patent EP4786467A1, “QUINOLINONE COMPOUND, PREPARATION METHOD THEREFOR AND USE THEREOF” (Vigonvita Life Sciences Co., Ltd., priority 2023, dated 2025).
# System: Male C57 mice
# Test: Forced Swim Test
# Assay type: in vivo
# Details: 10 mg/kg, intraperitoneally, 0.5h after administration; compared to the solvent control group; Figure 1
# Protocol: Drugs to be tested: The compounds of the present invention and the positive control compound (vortioxetine) were mixed with 5% DMSO, then mixed with 5% Solutol® HS 15, and then 90% physiological saline was added to prepare a solution of appropriate concentration. The solution was prepared immediately before use.
# Animal: Male C57 mice, approximately 22g. Animals were randomly divided into a blank control group and each test drug group, with 8 animals in each group. Mice in each group were intraperitoneally injected with either the solvent or the test drug.
# Experimental Procedure: Forced swimming test was performed on the mice 0.5h after drug administration. The water level in the forced swimming device was 45cm, and the water temperature was 25°C. The mice were placed in the experimental room for 1h to acclimatize before the experiment. Mice were placed in the device at the start of the experiment for 6 minutes, and the entire process was recorded by a camera. Data analysis only considered the immobility time of the mice during the last 4 minutes.
compound,measurement,value
Cc1ccc(Sc2ccccc2N2CCNCC2)c(C)c1 [vortioxetine],immobility time of mice,significantly reduced the immobility time
